Test results reported in US20250186408A1, “TREATMENT OF PHARMACORESISTANT EPILEPSY” (Katholieke Universiteit Leuven, priority 2021, published 2025).

These molecules were tested on EKP-induced epileptiform discharges in zebrafish larvae (assay: Zebrafish EKP seizure model, electrophysiology (non-invasive LFP recordings, PSD analysis)). Details: 2 μM, 22 h, 7 dpf larvae.
Format: in vivo, zebrafish (Danio rerio)
Description: Non-invasive LFP recordings were measured from the midbrain (optic tectum) of 7 dpf zebrafish larvae pre-incubated with VHC only, EKP only, or compound and EKP. […] These steps occurred at 28° C., while further manipulation and electrophysiological recordings occurred at room temperature (±21° C.) and were performed as described before (16, 27). Each recording lasted 600 seconds.
A power spectral density (PSD) analysis of the recordings was performed using MatLab R2019 software (MATrix LABoratory, USA) as described in (26). The PSD estimate of each LFP recording was summed over each 10 Hz frequency band, ranging from 0 to 160 Hz. Next, the PSD estimates were normalized against the VHC control. Data are expressed as mean±SEM PSD per larva and per condition over the 20-90 Hz region. Outliers were identified via the ROUT test (Q=1%).
PSD analysis assumes that the epileptiform activity manifests as a high-power oscillation at certain frequencies (26). Thus, if epileptic activity occurs often during the recording an elevated PSD estimate should be found at the corresponding frequency band(s) (26).
For `Cn1nc(C#Cc2cccc(Cl)c2)c2cccnc21` [Compound 10.2, 3-((3-chlorophenyl)ethynyl)-1-methyl-1H-pyrazolo[3,4-b]pyridine], the “effect on EKP-induced elevated PSD (in words)” value was “did not”.

Same assay, conditions: 2 μM, 22 h incubation, 7 dpf larvae; mean, normalized PSD 20-90 Hz
In the case of `CCSC(=CC(=O)c1ccccc1)c1ccc(C(C)(C)C)cc1` (mixture of isomers) [Compound 5.1, (E/Z)-3-(4-(tert-butyl)phenyl)-3-(ethylthio)-1-phenylprop-2-en-1-one], the “efficacy against EKP-induced epileptiform discharges 2 μM” value is reported as 36%.
`COc1ccccc1C(O)C#Cc1ccc(C(C)(C)C)cc1` (racemic) [Compound 3.1, rac-3-(4-(tert-butyl)phenyl)-1-(2-methoxyphenyl)prop-2-yn-1-ol] was tested, and the “efficacy against EKP-induced epileptiform discharges 2 μM” value was 79%.
With `CC(C)(C)c1ccc(C#CC(O)c2ccccc2O)cc1` (racemic) [Compound 3.2, rac-2-(3-(4-(tert-butyl)phenyl)-1-hydroxyprop-2-yn-1-yl)phenol] the “efficacy against EKP-induced epileptiform discharges 2 μM” value was 26%.
In the case of `Nc1ncccc1C(O)C#Cc1cccc(Cl)c1` (racemic) [Compound 3.4, rac-1-(2-aminopyridin-3-yl)-3-(3-chlorophenyl)prop-2-yn-1-ol], the “efficacy against EKP-induced epileptiform discharges 2 μM” value is reported as 7%.
With `Nc1ncccc1C(=O)C#Cc1ccccc1` [Compound 1.1, 1-(2-aminopyridin-3-yl)-3-phenylprop-2-yn-1-one] the “efficacy against EKP-induced epileptiform discharges 2 μM” value was 65%.
With `Nc1ncccc1C(=O)C#Cc1ccc(F)cc1` [Compound 1.2, 1-(2-aminopyridin-3-yl)-3-(4-fluorophenyl)prop-2-yn-1-one] the “efficacy against EKP-induced epileptiform discharges 2 μM” value was 80%.
For `CC(C)[Si](C#CC(=O)c1cccnc1N)(C(C)C)C(C)C` [Compound 1.3, 1-(2-aminopyridin-3-yl)-3-(triisopropylsilyl)prop-2-yn-1-one], the “efficacy against EKP-induced epileptiform discharges 2 μM” value was 67%.
`Nc1ncccc1C(=O)C#CC1CCCCC1` [Compound 1.4, 1-(2-aminopyridin-3-yl)-3-cyclohexylprop-2-yn-1-one] was tested, and the “efficacy against EKP-induced epileptiform discharges 2 μM” value was 69%.
For `CCCCCC#CC(=O)c1cccnc1N` [Compound 1.5, 1-(2-aminopyridin-3-yl)oct-2-yn-1-one], the “efficacy against EKP-induced epileptiform discharges 2 μM” value was 91%.
For `CC(C)C#CC(=O)c1cccnc1N` [Compound 1.6, 1-(2-aminopyridin-3-yl)-4-methylpent-2-yn-1-one], the “efficacy against EKP-induced epileptiform discharges 2 μM” value was 1%.
`Nc1ncccc1C(=O)C#Cc1ccc(Cl)cc1` [Compound 1.7, 1-(2-aminopyridin-3-yl)-3-(4-chlorophenyl)prop-2-yn-1-one] was tested, and the “efficacy against EKP-induced epileptiform discharges 2 μM” value was 70%.
`COC(=O)c1ccc(C#CC(=O)c2cccnc2N)cc1` [Compound 1.8, methyl 4-(3-(2-aminopyridin-3-yl)-3-oxoprop-1-yn-1-yl)benzoate] was tested, and the “efficacy against EKP-induced epileptiform discharges 2 μM” value was 18%.
For `COc1ccc(C#CC(=O)c2cccnc2N)cc1` [Compound 1.9, 1-(2-aminopyridin-3-yl)-3-(4-methoxyphenyl)prop-2-yn-1-one], the “efficacy against EKP-induced epileptiform discharges 2 μM” value was 35%.
In the case of `Nc1ncccc1C(=O)C#Cc1cccc(Cl)c1` [Compound 1.10, 1-(2-aminopyridin-3-yl)-3-(3-chlorophenyl)prop-2-yn-1-one], the “efficacy against EKP-induced epileptiform discharges 2 μM” value is reported as −42%.
For `Nc1ncccc1C(=O)C#Cc1ccc(C(F)(F)F)cc1` [Compound 1.11, 1-(2-aminopyridin-3-yl)-3-(4-(trifluoromethyl)phenyl)prop-2-yn-1-one], the “efficacy against EKP-induced epileptiform discharges 2 μM” value was 47%.
In the case of `Cc1ccc(C#CC(=O)c2cccnc2N)cc1` [Compound 1.12, 1-(2-aminopyridin-3-yl)-3-(p-tolyl)prop-2-yn-1-one], the “efficacy against EKP-induced epileptiform discharges 2 μM” value is reported as 86%.
For `CC(C)(C)c1ccc(C#CC(=O)c2ccccc2N)cc1` [Compound 1.14, 1-(2-aminophenyl)-3-(4-(tert-butyl)phenyl)prop-2-yn-1-one], the “efficacy against EKP-induced epileptiform discharges 2 μM” value was 60%.
With `CC(C)(C)c1ccc(C#CC(=O)c2cccnc2)cc1` [Compound 1.15, 3-(4-(tert-butyl)phenyl)-1-(pyridin-3-yl)prop-2-yn-1-one] the “efficacy against EKP-induced epileptiform discharges 2 μM” value was −49%.
In the case of `CC(C)(C)c1ccc(C#CC(=O)c2ccccc2)cc1` [Compound 1.16, 3-(4-(tert-butyl)phenyl)-1-phenylprop-2-yn-1-one], the “efficacy against EKP-induced epileptiform discharges 2 μM” value is reported as 38%.
In the case of `Nc1ncccc1C(=O)C#Cc1cccc(C(F)(F)F)c1` [Compound 1.17, 1-(2-aminopyridin-3-yl)-3-(3-(trifluoromethyl)phenyl)prop-2-yn-1-one], the “efficacy against EKP-induced epileptiform discharges 2 μM” value is reported as 61%.
`COc1ccccc1C(=O)C#Cc1ccc(C(C)(C)C)cc1` [Compound 1.18, 3-(4-(tert-butyl)phenyl)-1-(2-methoxyphenyl)prop-2-yn-1-one] was tested, and the “efficacy against EKP-induced epileptiform discharges 2 μM” value was 71%.
For `CC(C)(C)c1ccc(C#CC(=O)c2ccccc2O)cc1` [Compound 1.19, 3-(4-(tert-butyl)phenyl)-1-(2-hydroxyphenyl)prop-2-yn-1-one], the “efficacy against EKP-induced epileptiform discharges 2 μM” value was −23%.
For `CC(C)(C)c1ccc(C#CC(=O)c2ncccc2N)cc1` [Compound 1.24, 1-(3-aminopyridin-2-yl)-3-(4-(tert-butyl)phenyl)prop-2-yn-1-one], the “efficacy against EKP-induced epileptiform discharges 2 μM” value was 45%.
`O=C(C#Cc1cccc(Cl)c1)c1cccnc1` [Compound 1.25, 3-(3-chlorophenyl)-1-(pyridin-3-yl)prop-2-yn-1-one] was tested, and the “efficacy against EKP-induced epileptiform discharges 2 μM” value was −43%.
In the case of `O=C(C#Cc1cccc(Cl)c1)c1ncc[nH]1` [Compound 1.26, 3-(3-chlorophenyl)-1-(1H-imidazol-2-yl)prop-2-yn-1-one], the “efficacy against EKP-induced epileptiform discharges 2 μM” value is reported as 51%.
`CN(C)c1ncccc1C(=O)C#Cc1cccc(Cl)c1` [Compound 1.27, 3-(3-chlorophenyl)-1-(2-(dimethylamino)pyridin-3-yl)prop-2-yn-1-one] was tested, and the “efficacy against EKP-induced epileptiform discharges 2 μM” value was −52%.
With `O=C(C#Cc1ccccc1)c1ccccc1` [Compound 1.28, 1,3-diphenylprop-2-yn-1-one] the “efficacy against EKP-induced epileptiform discharges 2 μM” value was 25%.
For `COc1ccc(C#CC(=O)c2ccccc2)cc1` [Compound 1.29, 3-(4-methoxyphenyl)-1-phenylprop-2-yn-1-one], the “efficacy against EKP-induced epileptiform discharges 2 μM” value was 26%.
`Cc1ccc(C#CC(=O)c2ccccc2)cc1` [Compound 1.30, 1-phenyl-3-(p-tolyl)prop-2-yn-1-one] was tested, and the “efficacy against EKP-induced epileptiform discharges 2 μM” value was 28%.
With `COc1cccc(C#CC(=O)c2ccccc2)c1` [Compound 1.32, 3-(3-methoxyphenyl)-1-phenylprop-2-yn-1-one] the “efficacy against EKP-induced epileptiform discharges 2 μM” value was 29%.
For `Cc1cccc(C#CC(=O)c2ccccc2)c1` [Compound 1.33, 1-phenyl-3-(m-tolyl)prop-2-yn-1-one], the “efficacy against EKP-induced epileptiform discharges 2 μM” value was 50%.
With `O=C(C#Cc1cccc(Cl)c1)c1ccccc1` [Compound 1.34, 3-(3-chlorophenyl)-1-phenylprop-2-yn-1-one] the “efficacy against EKP-induced epileptiform discharges 2 μM” value was 21%.
`COc1ccccc1C#CC(=O)c1ccccc1` [Compound 1.36, 3-(2-methoxyphenyl)-1-phenylprop-2-yn-1-one] was tested, and the “efficacy against EKP-induced epileptiform discharges 2 μM” value was 52%.
For `Cc1ccccc1C#CC(=O)c1ccccc1` [Compound 1.37, 1-phenyl-3-(o-tolyl)prop-2-yn-1-one], the “efficacy against EKP-induced epileptiform discharges 2 μM” value was 28%.
With `O=C(C#Cc1ccccc1Cl)c1ccccc1` [Compound 1.38, 3-(2-chlorophenyl)-1-phenylprop-2-yn-1-one] the “efficacy against EKP-induced epileptiform discharges 2 μM” value was −63%.
In the case of `CC(C)(C)c1ccc(C#CC(=O)c2cccc(F)c2)cc1` [Compound 1.39, 3-(4-(tert-butyl)phenyl)-1-(3-fluorophenyl)prop-2-yn-1-one], the “efficacy against EKP-induced epileptiform discharges 2 μM” value is reported as −61%.
In the case of `Nc1ccccc1C(=O)C#Cc1cccc(Cl)c1` [Compound 1.40, 1-(2-aminophenyl)-3-(3-chlorophenyl)prop-2-yn-1-one], the “efficacy against EKP-induced epileptiform discharges 2 μM” value is reported as 82%.
In the case of `CC(C)(C)c1ccc(C#CC=O)cc1` [Compound 2.1, 3-(4-(tert-butyl)phenyl)propiolaldehyde], the “efficacy against EKP-induced epileptiform discharges 2 μM” value is reported as 30%.
`Nc1ncccc1C(=O)/C=C/c1cccc(Cl)c1` [Compound 5.2, (E)-1-(2-aminopyridin-3-yl)-3-(3-chlorophenyl)prop-2-en-1-one] was tested, and the “efficacy against EKP-induced epileptiform discharges 2 μM” value was 55%.
In the case of `CC(C)(C)c1ccc(C2=CC(c3ccccc3)=CS(C)(=O)=C2)cc1` (stereo not shown) [Compound 9.1, 3-(4-(tert-butyl)phenyl)-1-methyl-5-phenyl-1λ^6-thiopyran 1-oxide], the “efficacy against EKP-induced epileptiform discharges 2 μM” value is reported as 51%.
`Cn1nc(C#Cc2cccc(Cl)c2)c2cccnc21` [Compound 10.2, 3-((3-chlorophenyl)ethynyl)-1-methyl-1H-pyrazolo[3,4-b]pyridine] was tested, and the “efficacy against EKP-induced epileptiform discharges 2 μM” value was 19%.
In the case of `Clc1cccc(C#Cc2n[nH]c3ccccc23)c1` [Compound 11.1, 3-((3-chlorophenyl)ethynyl)-1H-indazole], the “efficacy against EKP-induced epileptiform discharges 2 μM” value is reported as 60%.

Same assay, conditions: 10 μM, 22 h, 7 dpf larvae
In the case of `Cn1nc(C#Cc2cccc(Cl)c2)c2cccnc21` [Compound 10.2, 3-((3-chlorophenyl)ethynyl)-1-methyl-1H-pyrazolo[3,4-b]pyridine], the “effect on EKP-induced elevated PSD (in words)” value is reported as “significant decrease”.

Same assay, conditions: 10 μM, 22 h incubation, 7 dpf larvae; mean, normalized PSD 20-90 Hz
With `CC(C)(C)c1ccc(C#CC(O)c2ccccc2O)cc1` (racemic) [Compound 3.2, rac-2-(3-(4-(tert-butyl)phenyl)-1-hydroxyprop-2-yn-1-yl)phenol] the “efficacy against EKP-induced epileptiform discharges 10 μM” value was 57%.
In the case of `Nc1ncccc1C(O)C#Cc1cccc(Cl)c1` (racemic) [Compound 3.4, rac-1-(2-aminopyridin-3-yl)-3-(3-chlorophenyl)prop-2-yn-1-ol], the “efficacy against EKP-induced epileptiform discharges 10 μM” value is reported as 7%.
`CC(C)[Si](C#CC(=O)c1cccnc1N)(C(C)C)C(C)C` [Compound 1.3, 1-(2-aminopyridin-3-yl)-3-(triisopropylsilyl)prop-2-yn-1-one] was tested, and the “efficacy against EKP-induced epileptiform discharges 10 μM” value was −23%.
With `CC(C)(C)c1ccc(C#CC(=O)c2ncccc2N)cc1` [Compound 1.24, 1-(3-aminopyridin-2-yl)-3-(4-(tert-butyl)phenyl)prop-2-yn-1-one] the “efficacy against EKP-induced epileptiform discharges 10 μM” value was 11%.
In the case of `Cn1nc(C#Cc2cccc(Cl)c2)c2cccnc21` [Compound 10.2, 3-((3-chlorophenyl)ethynyl)-1-methyl-1H-pyrazolo[3,4-b]pyridine], the “efficacy against EKP-induced epileptiform discharges 10 μM” value is reported as 76%.
